The supplement of paper PMC10307832

Assays:
Experiment in all cases: relative viability (nuclei count vs DMSO), 5 days (fraction); higher = more cells survive
NCI-H2347 = test system: NCI-H2347
Procedure, shortened: (§1)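 Five library-drug doses in √10 steps were combined with a fixed anchor-drug dose, or a single drug was given alone, by pin tool to lung cancer cell lines in 1536-well plates the day after seeding. Nuclei were stained and counted after 5 days. Relative viability is the nuclei count in treated wells over that in vehicle wells, taken as the median of duplicate plates.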

NCI-H2126 = test system: NCI-H2126
Procedure, shortened: as §1

H3255 = test system: H3255
Procedure, shortened: as §1

PC-14 = test system: PC-14
Procedure, shortened: as §1

SK-LU-1 = test system: SK-LU-1
Procedure, shortened: as §1

NCI-H2023 = test system: NCI-H2023
Procedure, shortened: as §1

SW 1573 = test system: SW 1573
Procedure, shortened: as §1

NCI-H647 = test system: NCI-H647
Procedure, shortened: as §1

NCI-H727 = test system: NCI-H727
Procedure, shortened: as §1

HOP-62 = test system: HOP-62
Procedure, shortened: as §1

NCI-H2009 = test system: NCI-H2009
Procedure, shortened: as §1

NCI-H1915 = test system: NCI-H1915
Procedure, shortened: as §1

NCI-H1650 = test system: NCI-H1650
Procedure, shortened: as §1

EMC-BAC-2 = test system: EMC-BAC-2
Procedure, shortened: as §1

NCI-H1993 = test system: NCI-H1993
Procedure, shortened: as §1

NCI-H322M = test system: NCI-H322M
Procedure, shortened: as §1

LCLC-97TM1 = test system: LCLC-97TM1
Procedure, shortened: as §1

NCI-H2085 = test system: NCI-H2085
Procedure, shortened: as §1

LXF-289 = test system: LXF-289
Procedure, shortened: as §1

BEN = test system: BEN
Procedure, shortened: as §1

With CC(C)Oc1cc(Nc2nc(N[C@@H](C)c3ccc(F)cn3)ncc2Cl)n[nH]1 [AZ23] + CC1(C)CCC(c2ccc(Cl)cc2)=C(CN2CCN(c3ccc(C(=O)NS(=O)(=O)c4ccc(N[C@H](CCN5CCOCC5)CSc5ccccc5)c(S(=O)(=O)C(F)(F)F)c4)cc3)CC2)C1 [Navitoclax] (partner 0.5 µM) the relative viability (NCI-H2347; first compound 0.01 µM) was 0.858, the relative viability (NCI-H2347; first compound 0.03162 µM) was 0.755 and the relative viability (NCI-H2347; first compound 0.3162 µM) was 0.818. It also gave a relative viability (NCI-H2126; first compound 0.01 µM) of 0.835, a relative viability (NCI-H2126; first compound 0.03162 µM) of 0.924 and a relative viability (NCI-H2126; first compound 0.3162 µM) of 0.774. For the same molecule, the relative viability (H3255; first compound 0.01 µM) was 0.514, the relative viability (H3255; first compound 0.03162 µM) was 0.677 and the relative viability (H3255; first compound 0.3162 µM) was 0.556. It also gave a relative viability (PC-14; first compound 0.01 µM) of 0.989, a relative viability (PC-14; first compound 0.03162 µM) of 1.21 and a relative viability (PC-14; first compound 0.3162 µM) of 1.1. It also gave a relative viability (SK-LU-1; first compound 0.01 µM) of 0.457, a relative viability (SK-LU-1; first compound 0.03162 µM) of 1.38 and a relative viability (SK-LU-1; first compound 0.3162 µM) of 0.858. It also gave a relative viability (NCI-H2023; first compound 0.03162 µM) of 1.1, a relative viability (NCI-H2023; first compound 0.3162 µM) of 1.05 and a relative viability (SW 1573; first compound 0.01 µM) of 0.991. It also gave a relative viability (SW 1573; first compound 0.03162 µM) of 0.952, a relative viability (SW 1573; first compound 0.3162 µM) of 0.833 and a relative viability (NCI-H647; first compound 0.01 µM) of 1.46. It also gave a relative viability (NCI-H647; first compound 0.03162 µM) of 1.51, a relative viability (NCI-H647; first compound 0.3162 µM) of 1.24 and a relative viability (NCI-H727; first compound 0.01 µM) of 0.382. The relative viability (NCI-H727; first compound 0.03162 µM) was 0.506, the relative viability (NCI-H727; first compound 0.3162 µM) was 0.385 and the relative viability (HOP-62; first compound 0.01 µM) was 0.94. It also gave a relative viability (HOP-62; first compound 0.03162 µM) of 1.21, a relative viability (HOP-62; first compound 0.3162 µM) of 1.18 and a relative viability (NCI-H2009; first compound 0.01 µM) of 1.16. It also gave a relative viability (NCI-H2009; first compound 0.03162 µM) of 1.18, a relative viability (NCI-H2009; first compound 0.3162 µM) of 1.19 and a relative viability (NCI-H1915; first compound 0.01 µM) of 0.799. For the same molecule, the relative viability (NCI-H1915; first compound 0.03162 µM) was 0.845, the relative viability (NCI-H1915; first compound 0.3162 µM) was 0.797 and the relative viability (NCI-H1650; first compound 0.01 µM) was 0.925. It also gave a relative viability (NCI-H1650; first compound 0.03162 µM) of 1.28, a relative viability (NCI-H1650; first compound 0.3162 µM) of 1.05 and a relative viability (EMC-BAC-2; first compound 0.01 µM) of 1.59. The relative viability (EMC-BAC-2; first compound 0.03162 µM) was 1.25, the relative viability (EMC-BAC-2; first compound 0.3162 µM) was 1.19 and the relative viability (NCI-H1993; first compound 0.01 µM) was 0.688. For the same molecule, the relative viability (NCI-H1993; first compound 0.3162 µM) was 0.916, the relative viability (NCI-H322M; first compound 0.01 µM) was 1.24 and the relative viability (NCI-H322M; first compound 0.03162 µM) was 1.09. The relative viability (NCI-H322M; first compound 0.3162 µM) was 1.29, the relative viability (LCLC-97TM1; first compound 0.01 µM) was 0.381 and the relative viability (LCLC-97TM1; first compound 0.03162 µM) was 0.364. For the same molecule, the relative viability (LCLC-97TM1; first compound 0.3162 µM) was 0.603, the relative viability (NCI-H2085; first compound 0.01 µM) was 1.31 and the relative viability (NCI-H2085; first compound 0.03162 µM) was 1.27. The relative viability (NCI-H2085; first compound 0.3162 µM) was 1.11, the relative viability (LXF-289; first compound 0.01 µM) was 1.08 and the relative viability (LXF-289; first compound 0.03162 µM) was 0.951. The relative viability (LXF-289; first compound 0.3162 µM) was 0.888, the relative viability (BEN; first compound 0.01 µM) was 0.0781 and the relative viability (BEN; first compound 0.03162 µM) was 0.0578. It also gave a relative viability (BEN; first compound 0.3162 µM) of 0.0639.

For C[C@@H]1CN(CC(=O)Nc2ccc3c(c2)Cc2cccc(-c4cc(=O)cc(N5CCOCC5)o4)c2S3)C[C@H](C)O1 + CC1(C)CCC(c2ccc(Cl)cc2)=C(CN2CCN(c3ccc(C(=O)NS(=O)(=O)c4ccc(N[C@H](CCN5CCOCC5)CSc5ccccc5)c(S(=O)(=O)C(F)(F)F)c4)cc3)CC2)C1 [Navitoclax] (partner 0.5 µM), the relative viability (NCI-H2347; first compound 0.04 µM) was 0.768, the relative viability (NCI-H2347; first compound 0.1265 µM) was 0.81 and the relative viability (NCI-H2347; first compound 0.4 µM) was 0.769. For the same molecule, the relative viability (NCI-H2347; first compound 4 µM) was 0.672, the relative viability (NCI-H2126; first compound 0.04 µM) was 0.879 and the relative viability (NCI-H2126; first compound 0.1265 µM) was 0.868. For the same molecule, the relative viability (NCI-H2126; first compound 0.4 µM) was 0.808, the relative viability (NCI-H2126; first compound 4 µM) was 0.851 and the relative viability (H3255; first compound 0.04 µM) was 0.475. It also gave a relative viability (H3255; first compound 0.1265 µM) of 0.411, a relative viability (H3255; first compound 0.4 µM) of 0.463 and a relative viability (H3255; first compound 4 µM) of 0.518. It also gave a relative viability (PC-14; first compound 0.04 µM) of 1.04, a relative viability (PC-14; first compound 0.1265 µM) of 0.987 and a relative viability (PC-14; first compound 0.4 µM) of 1.01. For the same molecule, the relative viability (PC-14; first compound 4 µM) was 0.797, the relative viability (SK-LU-1; first compound 0.04 µM) was 0.761 and the relative viability (SK-LU-1; first compound 0.1265 µM) was 0.969. For the same molecule, the relative viability (SK-LU-1; first compound 0.4 µM) was 0.956, the relative viability (SK-LU-1; first compound 4 µM) was 0.637 and the relative viability (NCI-H2023; first compound 0.04 µM) was 0.993. It also gave a relative viability (NCI-H2023; first compound 0.1265 µM) of 0.921, a relative viability (NCI-H2023; first compound 0.4 µM) of 0.923 and a relative viability (NCI-H2023; first compound 4 µM) of 0.796. The relative viability (SW 1573; first compound 0.04 µM) was 0.979, the relative viability (SW 1573; first compound 0.1265 µM) was 1.05 and the relative viability (SW 1573; first compound 0.4 µM) was 0.846. The relative viability (SW 1573; first compound 4 µM) was 0.842, the relative viability (NCI-H647; first compound 0.04 µM) was 0.989 and the relative viability (NCI-H647; first compound 0.1265 µM) was 1.09. It also gave a relative viability (NCI-H647; first compound 0.4 µM) of 1.09, a relative viability (NCI-H647; first compound 4 µM) of 0.591 and a relative viability (NCI-H727; first compound 0.04 µM) of 0.482. For the same molecule, the relative viability (NCI-H727; first compound 0.1265 µM) was 0.494, the relative viability (NCI-H727; first compound 0.4 µM) was 0.412 and the relative viability (NCI-H727; first compound 4 µM) was 0.381. The relative viability (HOP-62; first compound 0.04 µM) was 0.879, the relative viability (HOP-62; first compound 0.1265 µM) was 0.979 and the relative viability (HOP-62; first compound 0.4 µM) was 1.14. The relative viability (HOP-62; first compound 4 µM) was 1.01, the relative viability (NCI-H2009; first compound 0.04 µM) was 1.17 and the relative viability (NCI-H2009; first compound 0.1265 µM) was 1.1. For the same molecule, the relative viability (NCI-H2009; first compound 0.4 µM) was 1.15, the relative viability (NCI-H2009; first compound 4 µM) was 0.915 and the relative viability (NCI-H1915; first compound 0.04 µM) was 0.792. For the same molecule, the relative viability (NCI-H1915; first compound 0.1265 µM) was 0.789, the relative viability (NCI-H1915; first compound 0.4 µM) was 0.796 and the relative viability (NCI-H1915; first compound 4 µM) was 0.753. It also gave a relative viability (NCI-H1650; first compound 0.04 µM) of 1.25, a relative viability (NCI-H1650; first compound 0.1265 µM) of 1.09 and a relative viability (NCI-H1650; first compound 0.4 µM) of 1.38. It also gave a relative viability (NCI-H1650; first compound 4 µM) of 0.969, a relative viability (EMC-BAC-2; first compound 0.04 µM) of 1.16 and a relative viability (EMC-BAC-2; first compound 0.1265 µM) of 1.12. For the same molecule, the relative viability (EMC-BAC-2; first compound 0.4 µM) was 1.17, the relative viability (EMC-BAC-2; first compound 4 µM) was 1.09 and the relative viability (NCI-H1993; first compound 0.04 µM) was 0.933. For the same molecule, the relative viability (NCI-H1993; first compound 0.1265 µM) was 0.868, the relative viability (NCI-H1993; first compound 0.4 µM) was 0.644 and the relative viability (NCI-H1993; first compound 4 µM) was 0.865. It also gave a relative viability (NCI-H322M; first compound 0.04 µM) of 1.17, a relative viability (NCI-H322M; first compound 0.1265 µM) of 1.18 and a relative viability (NCI-H322M; first compound 0.4 µM) of 1.23. The relative viability (NCI-H322M; first compound 4 µM) was 1.12, the relative viability (LCLC-97TM1; first compound 0.1265 µM) was 0.645 and the relative viability (LCLC-97TM1; first compound 0.4 µM) was 0.279. For the same molecule, the relative viability (LCLC-97TM1; first compound 4 µM) was 0.318, the relative viability (NCI-H2085; first compound 0.04 µM) was 1.23 and the relative viability (NCI-H2085; first compound 0.1265 µM) was 1.18. For the same molecule, the relative viability (NCI-H2085; first compound 0.4 µM) was 1.02, the relative viability (NCI-H2085; first compound 4 µM) was 0.827 and the relative viability (LXF-289; first compound 0.04 µM) was 0.941. It also gave a relative viability (LXF-289; first compound 0.1265 µM) of 0.929, a relative viability (LXF-289; first compound 0.4 µM) of 1 and a relative viability (LXF-289; first compound 4 µM) of 0.913. It also gave a relative viability (BEN; first compound 0.04 µM) of 0.0641, a relative viability (BEN; first compound 0.1265 µM) of 0.0514 and a relative viability (BEN; first compound 0.4 µM) of 0.0961. The relative viability (BEN; first compound 4 µM) was 0.0488.
